Laboratory results reported in patent US20130331417A1, “INSECTICIDAL MIXTURES WITH IMPROVED PROPERTIES” (BAYER INTELLECTUAL PROPERTY GMBH, priority 2010, published 2013).

Assays:
[1] = tested on: Aphis gossypii; assay: Aphis gossypii test, cotton seed treatment; type: in vivo
Method: (§1) The expected efficacy of a given combination of two compounds is calculated as follows (see Colby, S .R., “Calculating Synergistic and antagonistic Responses of Herbicide Combinations”, Weeds 15, pp. 20-22, 1967):
(§2) If the observed insecticidal efficacy of the combination is higher than the one calculated as “E”, then the combination of the two compounds is more than additive, i.e., there is a synergistic effect.
(§3) If not mentioned otherwise, the crystalline modification I of 4-{[(6-chloropyrid-3-yl)methyl](methyl)amino} furan-2(5H)-one has been prepared as a water-dispersible or water-soluble powder in an active ingredient concentration of 70% (wt/wt) involving the following formulation auxiliaries, whereas the amount of auxiliaries sums up to 100 wt. %:
(§4) The auxiliaries were mixed with the appropriate amount of the crystalline modification I of 4-{[(6-chloropyrid-3-yl)methyl](methyl)amino} furan-2(5H)-one. There is no water or solvent added. To enable the dry mixture to stick on the seed, the seed were treated with a minimal amount of water, namely 30 μl for 2 g canola seeds, and 800 μl für 20 g cotton seeds.
Cotton seeds were treated with the compounds or mixtures and sown. 10 days after germination the plants were infested with a mixed population of the cotton aphid (Aphis gossypii). After the specified period of time, the mortality in % is determined 100% means that all the aphids have been killed; 0% means that none of the aphids have been killed.

[2] = tested on: Myzus persicae; assay: Myzus persicae test, oil seed rape seed treatment; type: in vivo; conditions: after 2 days
Method: as §1, §2, §3, §4
Seeds of Oil seed rape were treated with the compounds or mixtures and sown. Ca. […]
After the specified period of time, the mortality in % is determined 100% means that all the aphids have been killed; 0% means that none of the aphids have been killed.

CN(Cc1ccc(Cl)nc1)C1=CC(=O)OC1 [4-{[(6-chloropyrid-3-yl)methyl](methyl)amino} furan-2(5H)-one]
Mortality ([1]; after 2 days (head above the row), 0.01 mg ai/seed): 60%
Mortality ([1]; after 2 days, 0.025 mg ai/seed, infested 10 days after germination): 35%
Mortality ([2]; 0.025 mg ai/seed, infested ca. 35 days after germination): 40%

C/C(=N\C#N)N(C)Cc1ccc(Cl)nc1 [Acetamiprid]
Mortality ([2]; 1 mg ai/seed): 0%

O=[N+]([O-])NC1=NCCN1Cc1ccc(Cl)nc1 [Imidacloprid]
Mortality ([1]; after 3 days, 0.01 mg ai/seed): 0%

CCOC(=O)OC1=C(c2cc(C)ccc2C)C(=O)N[C@]12CC[C@@H](OC)CC2 [Spirotetramat]
Mortality ([1]; after 2 days, 5 mg ai/seed): 0%
